In ChEMBL document CHEMBL4265875, “A comprehensive review on Aurora kinase: Small molecule inhibitors and clinical trial studies” (Eur J Med Chem, 2017):
pIC50, pKi: −log10 of the molar value.

How the values were obtained:
[1] = Inhibition of Xenopus laevis aurora B (60 to 361 residues)/INCENP
[2] = biological target: T1, Aurora kinase B/Inner centromere protein (Homo sapiens, UniProt Q96GD4); assay: Inhibition of Aurora B/INCENP (unknown origin) assessed as affinity constant pre-incubated for 1 hr followed by FL-PKAtide substrate and ATP addition; type: protein-complex assay
[3] = biological target: T2, Aurora kinase B/Inner centromere protein (Homo sapiens) (UniProt Q96GD4+Q9NQS7); assay: Inhibition of Aurora B/INCENP (unknown origin) assessed as inhibitor-enzyme complex half life pre-incubated for 1 hr followed by FL-PKAtide substrate and ATP addition; type: protein-complex assay
[4] = biological target: T1, Aurora kinase B/Inner centromere protein; assay: Inhibition of Aurora B/INCENP (unknown origin) pre-incubated for 1 hr followed by FL-PKAtide substrate and ATP addition; type: protein-complex assay
HCT-116 [5] = assay: Antitumor activity against human HCT116 cells xenografted in mouse assessed as inhibition of tumor growth at 15 mg/kg; type: functional; details: read-out: TGI
HCT-116 [6] = assay: Antitumor activity against human HCT116 cells xenografted in mouse assessed as inhibition of tumor growth at 20 mg/kg; type: functional; details: read-out: TGI
[7] = Half life in tumor of mouse xenografted with human HCT116 cells at 15 to 20 mg/kg; type: ADME, organism-based, Neoplasm
HL-60 [8] = assay: Antitumor activity against human HL60 cells xenografted in nude mouse assessed as reduction in tumor size at 75 mg/kg, ip bid for 13 days; type: functional, organism-based; parameters: scale not given: the % may be the effect or the level left
HCT-116 [9] = assay: Antitumor activity against human HCT116 cells xenografted in nude mouse assessed as reduction in tumor size at 2 mg/kg/hr; type: functional, organism-based; parameters: scale not given: the % may be the effect or the level left
Aurora kinase A [10] = biological target: T3, Aurora kinase A (Homo sapiens, UniProt O14965); assay: Inhibition of Aurora A kinase (unknown origin)
HL-60 [11] = assay: Antitumor activity against human HL60 cells xenografted in rat assessed as inhibition of tumor growth at 25 mg/kg, iv bid; type: functional; details: HL-60, iv, read-out: TGI
A2780 = assay: Growth inhibition of human A2780 cells incubated for 72 hrs by MTT assay; type: functional; details: A2780, 72 h
SW-620 = assay: Growth inhibition of human SW620 cells incubated for 72 hrs by MTT assay; type: functional; details: SW-620, 72 h
[12] = Inhibition of CYP450 (unknown origin); type: ADME, Homo sapiens
[13] = biological target: T2, Aurora kinase B/Inner centromere protein (Homo sapiens)
Description: Inhibition of human Aurora B/INCENP assessed as dissociation half life pre-incubated for 30 mins before 5-FAM-PKAtide substrate addition and measured after 120 mins

Aurora kinase A [14] = biological target: T3, Aurora kinase A; assay: Inhibition of recombinant aurora 2 (unknown origin) expressed in Sf21 insect cells incubated for 60 mins using [biotin LRRWSLGLRRWSLGLRRWSLGLRRWSLG substrate and [gamma33P]ATP by beta plate counting method
Aurora kinase B = Aurora kinase B (Homo sapiens, UniProt Q96GD4); assay: Inhibition of recombinant aurora B (unknown origin)
Chain of Aurora kinase B (Q96GD4 whole entry): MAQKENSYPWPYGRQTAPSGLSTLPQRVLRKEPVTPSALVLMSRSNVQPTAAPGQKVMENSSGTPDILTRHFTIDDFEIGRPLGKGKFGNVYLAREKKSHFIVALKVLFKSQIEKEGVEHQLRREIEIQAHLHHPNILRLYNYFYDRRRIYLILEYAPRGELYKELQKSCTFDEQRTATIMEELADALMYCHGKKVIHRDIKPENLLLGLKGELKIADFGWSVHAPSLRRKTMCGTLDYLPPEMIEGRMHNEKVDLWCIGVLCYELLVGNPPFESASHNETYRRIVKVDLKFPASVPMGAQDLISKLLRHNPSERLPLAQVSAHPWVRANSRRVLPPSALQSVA

T1 sequence (Q96GD4 whole entry): as above
T1 sequence (Q9NQS7 whole entry, further chain): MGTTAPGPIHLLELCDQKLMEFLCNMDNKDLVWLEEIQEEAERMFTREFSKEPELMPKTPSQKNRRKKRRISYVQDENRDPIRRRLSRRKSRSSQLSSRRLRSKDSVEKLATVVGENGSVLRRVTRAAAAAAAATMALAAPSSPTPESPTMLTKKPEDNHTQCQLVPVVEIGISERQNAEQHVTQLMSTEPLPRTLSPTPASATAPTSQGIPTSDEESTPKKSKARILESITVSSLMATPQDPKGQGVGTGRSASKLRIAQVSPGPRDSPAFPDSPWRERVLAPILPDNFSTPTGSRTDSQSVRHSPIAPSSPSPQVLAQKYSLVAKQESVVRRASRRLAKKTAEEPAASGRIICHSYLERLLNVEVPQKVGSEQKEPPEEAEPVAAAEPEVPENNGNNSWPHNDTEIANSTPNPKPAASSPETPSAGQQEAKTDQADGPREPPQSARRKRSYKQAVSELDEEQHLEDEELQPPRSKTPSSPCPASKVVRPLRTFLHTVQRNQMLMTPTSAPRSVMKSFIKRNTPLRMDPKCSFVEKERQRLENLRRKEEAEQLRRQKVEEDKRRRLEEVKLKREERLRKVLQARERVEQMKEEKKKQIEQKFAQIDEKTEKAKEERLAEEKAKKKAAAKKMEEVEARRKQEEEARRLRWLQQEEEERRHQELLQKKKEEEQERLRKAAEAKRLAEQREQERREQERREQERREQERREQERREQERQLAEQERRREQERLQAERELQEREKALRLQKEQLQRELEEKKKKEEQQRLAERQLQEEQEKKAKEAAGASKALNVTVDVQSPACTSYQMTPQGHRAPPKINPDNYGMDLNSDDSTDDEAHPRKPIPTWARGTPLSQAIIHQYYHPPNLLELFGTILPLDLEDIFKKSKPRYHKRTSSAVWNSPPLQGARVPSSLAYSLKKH
T3 sequence (O14965 whole entry): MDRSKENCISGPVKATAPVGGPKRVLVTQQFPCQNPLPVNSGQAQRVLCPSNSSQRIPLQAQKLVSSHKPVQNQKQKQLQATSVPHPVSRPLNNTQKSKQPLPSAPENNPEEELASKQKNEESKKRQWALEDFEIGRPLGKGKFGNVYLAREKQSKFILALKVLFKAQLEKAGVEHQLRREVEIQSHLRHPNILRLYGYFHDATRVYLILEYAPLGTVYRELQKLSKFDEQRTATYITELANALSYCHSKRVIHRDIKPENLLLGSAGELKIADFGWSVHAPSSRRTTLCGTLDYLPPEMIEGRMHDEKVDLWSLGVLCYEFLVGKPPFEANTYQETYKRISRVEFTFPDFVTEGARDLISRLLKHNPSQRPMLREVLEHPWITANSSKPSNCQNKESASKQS

CCS(=O)(=O)Nc1ccc2c(c1)/C(=C(/Nc1ccc(CN3CCCCC3)cc1)c1ccccc1)C(=O)N2 [HESPERADIN]
pIC50 [1]: 6.60

CCS(=O)(=O)c1cccc(-c2cc(C(=O)NC3CCN(C)CC3)c(C)c3[nH]c4ncc(C)cc4c23)c1 [TAK-901]
pKi [2]: 10.70 | T1/2 [3]: 15.3 h | pIC50 [4]: 7.82

O=C(Nc1c[nH]nc1-c1nc2ccc(CN3CCOCC3)cc2[nH]1)NC1CC1 [AT-9283]
inhibition in vivo at 15 mg/kg (HCT-116 [5]): 67% | inhibition in vivo at 20 mg/kg (HCT-116 [6]): 76% | half-life [7]: 2.5 h

Cc1cc(Nc2cc(N3CCN(C)CC3)nc(Sc3ccc(NC(=O)C4CC4)cc3)n2)n[nH]1
Activity (HL-60 [8]): 98% | Activity (HCT-116 [9]): 56%

O=C1c2[nH]c3cc(-c4ccco4)nn3c(=O)c2CN1Cc1ccccc1
pIC50 (Aurora kinase A [10]): 6.25

CO[C@@H](C(=O)N1Cc2[nH]nc(NC(=O)c3ccc(N4CCN(C)CC4)cc3)c2C1)c1ccccc1 [DANUSERTIB]
inhibition in vivo at 25 mg/kg (HL-60 [11]): 75%

Cc1cc(CN2CCN(c3c(Br)cnc4nc(-c5ccc(N6CCN(C)CC6)cc5)[nH]c34)CC2)no1
GI50 (A2780): 300 nM | GI50 (SW-620): 140 nM | pIC50 [12]: < 5.00

CCn1cc(-c2ccnc3[nH]c(-c4cccc(CN(C)C)c4)cc23)c(-c2ccc(NC(=O)N(C)C)cc2)n1
T1/2 [13]: 8 h

COc1cc2c(Nc3ccc(C(=O)Nc4ccccc4)cc3)ncnc2cc1O
pIC50 (Aurora kinase A [14]): 7.22 | pIC50 (Aurora kinase B): 7.39
